Laboratory results as given in patent US12398154B2, “Azaquinazoline pan-KRas inhibitors” (Mirati Therapeutics, Inc., priority 2020, dated 2025).

Key:
KRas G12D = KRas G12D (Homo sapiens, UniProt P01116, G12D); assay: biochemical;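 further: TR-FRET displacement binding assay on KRas, read after a one-hour incubation at room temperature, IC50 fitted from percent-of-control values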
Protocol: (§1) The ability of a compound to bind to KRas was measured using a TR-FRET displacement assay. […] After a 60-minute incubation at room temperature, the reaction was measured using a BMG LABTECH CLARIO star Plus via TR-FRET. […] The POC values were fit to a 4-parameter IC50 equation and the IC50 value reported.

KRas G12V = KRas G12V (Homo sapiens, UniProt P01116, G12V); assay: biochemical;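 further: KRas binding measured by TR-FRET displacement at room temperature, IC50 fitted from percent of control values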
Protocol: as §1

KRas G12R = KRas G12R (Homo sapiens, UniProt P01116, G12R); assay: biochemical;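 further: TR-FRET displacement assay of compound binding to KRas, read after one hour at room temperature, potency from a four-parameter fit of percent-of-control values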
Protocol: as §1

pERK in MKN1 cells = assay: Inhibition of KRas phosphorylation of ERK (Cisbio HTRF pERK assay); conditions: Homo sapiens, MKN-1, 3 h, read-out: Inhibition (HTRF IC50) of KRas-mediated Phosphorylation of ERK, MKN1
pERK in PSN1 cells = assay: as above; conditions: Homo sapiens, PSN1, 3 h, read-out: Inhibition (HTRF IC50) of KRas-mediated Phosphorylation of ERK, PSN1
pERK in ASPC1 cells = assay: as above; conditions: Homo sapiens, ASPC1, read-out: Inhibition (HTRF IC50) of KRas-mediated Phosphorylation of ERK, AsPC-1
pERK in H727 cells = assay: as above; conditions: Homo sapiens, NCI-H727, read-out: Inhibition (HTRF IC50) of KRas-mediated Phosphorylation of ERK, H727
pERK in A549 cells = assay: as above; conditions: Homo sapiens, A549, read-out: Inhibition (HTRF IC50) of KRas-mediated Phosphorylation of ERK, A549
Protocol: To harvest cells from flask using 0.05% Trypsin/EDTA solution. Add 10 mL of media to stop trypsinizing. Pipette the cells into a conical bottom 50 mL centrifuge tube and centrifuge 5 min×1000 rpm. • 2. Re-suspend the cell pellet in media, take a cell count, and then adjust the cell density using fresh media. • 3. Seed 6,000 cells into cell culture plate with 50 μL media. […] Incubate cell plate overnight in a 37° C., 5% CO2 incubator. • Compound titrations • 1. Use Tecan to complete the compound addition. Compounds start from 10 uM top, 3-fold dilution, and 10 doses. The final DMSO concentration is 0.8%. Dispensed 0.2 uM Trametinib as Min control. • 2. Incubate cell plate for 3 hrs in the incubator. • Detection with cisbio pERK HTRF kit • 1. […] At the end of the compound treatment, flick-off the media. • 3. Add 35 μL of lysis buffer per well using a Multidrop Combi. Then place on a plate agitator shaking at 300 rpm at 4° C. for 40 mins. • 4. Make up the HTRF antibody buffer. For each assay plate, mix 50 μL of d2-conjugate antibody with 950 μL of detection buffer. Similarly, mix 50 μL of Cryptate antibody with 950 μL of detection buffer. Then mix the two diluted antibodies together. • 5. Dispense 3.4 μL the antibody buffer to wells of an empty assay plate. Seal the plate and centrifuge plate 30 sec×1000 rpm. • 6. At the end of the 4° C. lysis, centrifuge the lysate plates 3 mins×1500 rpm. • 7. Use the Bravo to transfer 13.6 μL of lysate from cell culture plate to assay plate.
Then incubate assay plate for 2 hrs at room temperature. […] At the end of incubation, read plate on the Envision after centrifuging plate 30 sec× • 1000 rpm.

pERK in H460 cells = assay: as above; conditions: Homo sapiens, NCI-H460, read-out: Inhibition (HTRF IC50) of KRas-mediated Phosphorylation of ERK, H460
pERK in HCT116 cells = assay: as above; conditions: Homo sapiens, HCT-116, read-out: Inhibition (HTRF IC50) of KRas-mediated Phosphorylation of ERK, HCT116
pERK in H358 cells = assay: as above; conditions: Homo sapiens, NCI-H358, read-out: Inhibition (HTRF IC50) of KRas-mediated Phosphorylation of ERK, H358

KRas G12R, sequence (P01116 1-169 isoform P01116-2 G12R): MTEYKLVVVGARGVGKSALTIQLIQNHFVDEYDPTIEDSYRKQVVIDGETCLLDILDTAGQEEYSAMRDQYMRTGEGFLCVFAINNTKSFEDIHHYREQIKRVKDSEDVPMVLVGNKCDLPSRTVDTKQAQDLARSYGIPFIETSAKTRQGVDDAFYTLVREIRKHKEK
KRas G12V, sequence (P01116 1-169 isoform P01116-2 G12V): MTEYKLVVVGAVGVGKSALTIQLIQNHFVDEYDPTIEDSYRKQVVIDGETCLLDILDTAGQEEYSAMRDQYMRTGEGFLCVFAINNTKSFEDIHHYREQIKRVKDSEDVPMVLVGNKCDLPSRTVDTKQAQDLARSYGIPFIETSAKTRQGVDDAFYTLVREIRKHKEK
KRas G12D, sequence (P01116 1-169 isoform P01116-2 G12D): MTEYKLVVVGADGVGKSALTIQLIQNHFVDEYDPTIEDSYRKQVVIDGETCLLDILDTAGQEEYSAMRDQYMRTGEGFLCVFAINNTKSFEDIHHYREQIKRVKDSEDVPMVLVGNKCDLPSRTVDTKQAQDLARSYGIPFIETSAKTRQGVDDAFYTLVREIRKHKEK

IC50 (KRas G12D) | IC50 (KRas G12V) | IC50 (KRas G12R) | IC50 (pERK in MKN1 cells) | IC50 (pERK in PSN1 cells) | IC50 (pERK in ASPC1 cells) | IC50 (pERK in H727 cells) | IC50 (pERK in A549 cells) | IC50 (pERK in H460 cells) | IC50 (pERK in HCT116 cells) | IC50 (pERK in H358 cells) | Structure (SMILES)
3 nM | 3 nM | 4 nM | 37 nM | 5130 nM | 73 nM | 313 nM | 629 nM | 404 nM | 763 nM | 113 nM | CCc1c(F)ccc2cc(O)cc(-c3ncc4c(N5CCC[C@@](C)(O)C5)nc(OC[C@]56CCCN5[C@@H](COC(=O)N(C)C)CC6)nc4c3F)c12 [Example 362, ((3R,7aR)-7a-(((7-(8-ethyl-7-fluoro-3-hydroxynaphthalen-1-yl)-8-fluoro-4-((R)-3-hydroxy-3-methylpiperidin-1-yl)pyrido[4,3-d]pyrimidin-2-yl)oxy)methyl)hexahydro-1H-pyrrolizin-3-yl)methyl dimethylcarbamate]
≤ 2 nM | ≤ 2 nM | ≤ 2 nM | 10 nM | 2860 nM | 17 nM | 24 nM | 11 nM | 17 nM | 77 nM | 6 nM | CCc1c(F)ccc2cc(O)cc(-c3ncc4c(N5CCCC6(CSC6)C5)nc(OC[C@@]56CCCN5C[C@H](F)C6)nc4c3F)c12 [Example 365, 5-ethyl-6-fluoro-4-(8-fluoro-2-(((2R,7aS)-2-fluorohexahydro-1H-pyrrolizin-7a-yl)methoxy)-4-(2-thia-6-azaspiro[3.5]nonan-6-yl)pyrido[4,3-d]pyrimidin-7-yl)naphthalen-2-ol]
≤ 2 nM | ≤ 2 nM | ≤ 2 nM | 8 nM | 449 nM | 68 nM | 24 nM | 133 nM | 110 nM | 68 nM | 20 nM | C#Cc1c(F)ccc2cc(O)cc(-c3ncc4c(N5CCCC6(CC(O)C6)C5)nc(OC[C@@]56CCCN5C[C@H](F)C6)nc4c3F)c12 (stereo partly drawn) [Example 393, 6-(7-(8-ethynyl-7-fluoro-3-hydroxynaphthalen-1-yl)-8-fluoro-2-(((2R,7aS)-2-fluorohexahydro-1H-pyrrolizin-7a-yl)methoxy)pyrido[4,3-d]pyrimidin-4-yl)-6-azaspiro[3.5]nonan-2-ol]
≤ 2 nM | ≤ 2 nM | ≤ 2 nM | 7 nM | 6690 nM | 25 nM | 26 nM | 102 nM | 387 nM | 348 nM | 10 nM | C#Cc1c(F)ccc2cc(O)cc(-c3ncc4c(N5CCCn6nc(C(=O)N(C)C)cc6C5)nc(OC[C@@]56CCCN5C[C@H](F)C6)nc4c3F)c12 [Example 398, 5-(7-(8-ethynyl-7-fluoro-3-hydroxynaphthalen-1-yl)-8-fluoro-2-(((2R,7aS)-2-fluorohexahydro-1H-pyrrolizin-7a-yl)methoxy)pyrido[4,3-d]pyrimidin-4-yl)-N,N-dimethyl-5,6,7,8-tetrahydro-4H-pyrazolo[1,5-a][1,4]diazepine-2-carboxamide]
≤ 2 nM | ≤ 2 nM | ≤ 2 nM | 1 nM | 357 nM | 3 nM | 16 nM | 14 nM | 18 nM | 23 nM | 4 nM | C[C@@]1(O)CCCN(c2nc(OC[C@@]34CCCN3C[C@H](F)C4)nc3c(F)c(-c4cc(O)cc5ccc(F)c(Br)c45)ncc23)C1 [Example 399, (R)-1-(7-(8-bromo-7-fluoro-3-hydroxynaphthalen-1-yl)-8-fluoro-2-(((2R,7aS)-2-fluorohexahydro-1H-pyrrolizin-7a-yl)methoxy)pyrido[4,3-d]pyrimidin-4-yl)-3-methylpiperidin-3-ol]
≤ 2 nM | ≤ 2 nM | ≤ 2 nM | 7 nM | 3540 nM | 27 nM | 87 nM | 62 nM | 41 nM | 113 nM | 9 nM | CC1(O)COCCN(c2nc(OC[C@@]34CCCN3C[C@H](F)C4)nc3c(F)c(-c4cc(O)cc5ccc(F)c(Br)c45)ncc23)C1 (stereo partly drawn) [Example 400, 4-(7-(8-bromo-7-fluoro-3-hydroxynaphthalen-1-yl)-8-fluoro-2-(((2R,7aS)-2-fluorohexahydro-1H-pyrrolizin-7a-yl)methoxy)pyrido[4,3-d]pyrimidin-4-yl)-6-methyl-1,4-oxazepan-6-ol]
≤ 2 nM | ≤ 2 nM | ≤ 2 nM | 3 nM | 514 nM | 12 nM | 14 nM | 34 nM | 51 nM | 46 nM | 4 nM | Oc1cc(-c2ncc3c(N4CC5CC(O)C(C5)C4)nc(OC[C@@]45CCCN4C[C@H](F)C5)nc3c2F)c2c(Br)c(F)ccc2c1 (stereo partly drawn) [Example 402, 3-(7-(8-bromo-7-fluoro-3-hydroxynaphthalen-1-yl)-8-fluoro-2-(((2R,7aS)-2-fluorohexahydro-1H-pyrrolizin-7a-yl)methoxy)pyrido[4,3-d]pyrimidin-4-yl)-3-azabicyclo[3.2.1]octan-6-ol]
≤ 2 nM | ≤ 2 nM | ≤ 2 nM | 15 nM | 1330 nM | 27 nM | 15 nM | 27 nM | 26 nM | 41 nM | 3 nM | Oc1cc(-c2ncc3c(N4CCCC5(CC(O)C5)C4)nc(OC[C@@]45CCCN4C[C@H](F)C5)nc3c2F)c2c(Br)c(F)ccc2c1 (stereo partly drawn) [Example 407, 6-(7-(8-bromo-7-fluoro-3-hydroxynaphthalen-1-yl)-8-fluoro-2-(((2R,7aS)-2-fluorohexahydro-1H-pyrrolizin-7a-yl)methoxy)pyrido[4,3-d]pyrimidin-4-yl)-6-azaspiro[3.5]nonan-2-ol]
≤ 2 nM | ≤ 2 nM | ≤ 2 nM | 34 nM | 5980 nM | 19 nM | 51 nM | 242 nM | 413 nM | 586 nM | 11 nM | CN(C)C(=O)c1cc2n(n1)CCCN(c1nc(OC[C@@]34CCCN3C[C@H](F)C4)nc3c(F)c(-c4cc(O)cc5ccc(F)c(Br)c45)ncc13)C2 [Example 412, 5-(7-(8-bromo-7-fluoro-3-hydroxynaphthalen-1-yl)-8-fluoro-2-(((2R,7aS)-2-fluorohexahydro-1H-pyrrolizin-7a-yl)methoxy)pyrido[4,3-d]pyrimidin-4-yl)-N,N-dimethyl-5,6,7,8-tetrahydro-4H-pyrazolo[1,5-a][1,4]diazepine-2-carboxamide]
≤ 2 nM | ≤ 2 nM | 3 nM | 3 nM | 596 nM | 25 nM | 32 nM | 74 nM | 52 nM | 60 nM | 11 nM | C[C@@]1(O)CCCN(c2nc(OC[C@@]34CCCN3C[C@H](F)C4)nc3c(F)c(-c4cc(O)cc5ccc(F)c(Cl)c45)ncc23)C1 [Example 418, (R)-1-(7-(8-chloro-7-fluoro-3-hydroxynaphthalen-1-yl)-8-fluoro-2-(((2R,7aS)-2-fluorohexahydro-1H-pyrrolizin-7a-yl)methoxy)pyrido[4,3-d]pyrimidin-4-yl)-3-methylpiperidin-3-ol]
3 nM | ≤ 2 nM | ≤ 2 nM | 4 nM | 1500 nM | 61 nM | 26 nM | 39 nM | 73 nM | 70 nM | 16 nM | Oc1cc(-c2ncc3c(N4CC5CC(O)C(C5)C4)nc(OC[C@@]45CCCN4C[C@H](F)C5)nc3c2F)c2c(Cl)c(F)ccc2c1 (stereo partly drawn) [Example 421, 3-(7-(8-chloro-7-fluoro-3-hydroxynaphthalen-1-yl)-8-fluoro-2-(((2R,7aS)-2-fluorotetrahydro-1H-pyrrolizin-7a(5H)-yl)methoxy)pyrido[4,3-d]pyrimidin-4-yl)-3-azabicyclo[3,2,1]octan-6-ol]
